{
  "source": "patent US10106515B2",
  "about": "“1-(cyclopent-2-en-1-yl)-3-(2-hydroxy-3-(arylsulfonyl)phenyl)urea derivatives as CXCR2 inhibitors” (GLAXOSMITHKLINE INTELLECTUAL PROPERTY DEVELOPMENT LIMITED, priority 2014, dated 2018)",
  "test_system": "Rat oligodendrocyte precursor cells (OPCs)",
  "assay": "OPC differentiation assay",
  "type": "cell-based",
  "conditions": "percentage of MBP+ cells",
  "procedure": "In the oligodendrocyte precursor cell (OPC) in vitro differentiation assay, purified or enriched OPCs are cultured and differentiated into immature oligodendrocytes, mature oligodendrocytes, and myelinating oligodendrocytes (Watkins et al. (2008) Neuron 60:555-569). Specific markers have been identified for each specific stage of OPC differentiation. Myelin basic proteins (MBP), a specific marker for matured and myelinating oligodendrocytes, is used as an indicator for OPC differentiation and maturation (Franklin et al. (2008) J Neurosci, 255 Suppl 1:19-25). The OPC differentiation assay provides a tool to screen the compounds with the potency of promoting OPC differentiation, which is an initial step for downstream remyelination repair in vivo after demyelination occurs in mutiple scelerosis (MS) patients.\nRat oligodendrocyte precursor cells (OPCs) were obtained from P1 pups and were cultured in DMEM/20S medium (DMEM with 20% FBS, 4 mM L-Glutamine, 1 mM sodium pyruvate and penicillin) (Zhang et al. (2007) Nature Protocol 2 (5):1044). […] The plate was read on Cellomics (SN: 04080019LH; P/N no 1-0117) using target activation protocol to calculate the percentage of MBP+ cells to reflect the differentiation of OPCs.",
  "data": [
    {"compound": "CC1=CCC[C@H]1NC(=O)Nc1ccc(Cl)c(S(=O)(=O)[C@@]2(C)CCOC2)c1O", "note": "[Compound 195, 1-(4-chloro-2-hydroxy-3-(((S)-3-methyltetrahydrofuran-3-yl)sulfonyl)phenyl)-3-((R)-2-methylcyclopent-2-en-1-yl)urea]", "values": [
      {"measurement": "IC50", "setting": "Oligodendrocyte precursor cell, read-out: pIC50 (OPC differentiation assay) (converted)", "value": 6.31, "unit": "µM"},
      {"measurement": "OPC differentiation", "value": "promote OPC differentiation"}
    ]}
  ]
}
